Data taken from publication PMC12487594, “Contusive spinal cord injury causes Nav1.8 dysfunction to upregulate small sensory neuron excitability” (The Journal of Physiology, 2025).
Peptide text beside a SMILES is read from it. * marks the point of attachment. Cbz = O=C(OCc1ccccc1)*; Boc = CC(C)(C)OC(=O)*

Biological target: T1, Nav1.8 (Homo sapiens, UniProt Q9Y5Y9)
T1 construct: gene SCN10A
Assay: whole-cell patch clamp of Nav1.[…] + FHF4A in ND7/[…] cells ([…] TTX), […] h pre-incubation; transient current
Assay type: cell-based

T1 sequence (Q9Y5Y9 whole entry, looked up): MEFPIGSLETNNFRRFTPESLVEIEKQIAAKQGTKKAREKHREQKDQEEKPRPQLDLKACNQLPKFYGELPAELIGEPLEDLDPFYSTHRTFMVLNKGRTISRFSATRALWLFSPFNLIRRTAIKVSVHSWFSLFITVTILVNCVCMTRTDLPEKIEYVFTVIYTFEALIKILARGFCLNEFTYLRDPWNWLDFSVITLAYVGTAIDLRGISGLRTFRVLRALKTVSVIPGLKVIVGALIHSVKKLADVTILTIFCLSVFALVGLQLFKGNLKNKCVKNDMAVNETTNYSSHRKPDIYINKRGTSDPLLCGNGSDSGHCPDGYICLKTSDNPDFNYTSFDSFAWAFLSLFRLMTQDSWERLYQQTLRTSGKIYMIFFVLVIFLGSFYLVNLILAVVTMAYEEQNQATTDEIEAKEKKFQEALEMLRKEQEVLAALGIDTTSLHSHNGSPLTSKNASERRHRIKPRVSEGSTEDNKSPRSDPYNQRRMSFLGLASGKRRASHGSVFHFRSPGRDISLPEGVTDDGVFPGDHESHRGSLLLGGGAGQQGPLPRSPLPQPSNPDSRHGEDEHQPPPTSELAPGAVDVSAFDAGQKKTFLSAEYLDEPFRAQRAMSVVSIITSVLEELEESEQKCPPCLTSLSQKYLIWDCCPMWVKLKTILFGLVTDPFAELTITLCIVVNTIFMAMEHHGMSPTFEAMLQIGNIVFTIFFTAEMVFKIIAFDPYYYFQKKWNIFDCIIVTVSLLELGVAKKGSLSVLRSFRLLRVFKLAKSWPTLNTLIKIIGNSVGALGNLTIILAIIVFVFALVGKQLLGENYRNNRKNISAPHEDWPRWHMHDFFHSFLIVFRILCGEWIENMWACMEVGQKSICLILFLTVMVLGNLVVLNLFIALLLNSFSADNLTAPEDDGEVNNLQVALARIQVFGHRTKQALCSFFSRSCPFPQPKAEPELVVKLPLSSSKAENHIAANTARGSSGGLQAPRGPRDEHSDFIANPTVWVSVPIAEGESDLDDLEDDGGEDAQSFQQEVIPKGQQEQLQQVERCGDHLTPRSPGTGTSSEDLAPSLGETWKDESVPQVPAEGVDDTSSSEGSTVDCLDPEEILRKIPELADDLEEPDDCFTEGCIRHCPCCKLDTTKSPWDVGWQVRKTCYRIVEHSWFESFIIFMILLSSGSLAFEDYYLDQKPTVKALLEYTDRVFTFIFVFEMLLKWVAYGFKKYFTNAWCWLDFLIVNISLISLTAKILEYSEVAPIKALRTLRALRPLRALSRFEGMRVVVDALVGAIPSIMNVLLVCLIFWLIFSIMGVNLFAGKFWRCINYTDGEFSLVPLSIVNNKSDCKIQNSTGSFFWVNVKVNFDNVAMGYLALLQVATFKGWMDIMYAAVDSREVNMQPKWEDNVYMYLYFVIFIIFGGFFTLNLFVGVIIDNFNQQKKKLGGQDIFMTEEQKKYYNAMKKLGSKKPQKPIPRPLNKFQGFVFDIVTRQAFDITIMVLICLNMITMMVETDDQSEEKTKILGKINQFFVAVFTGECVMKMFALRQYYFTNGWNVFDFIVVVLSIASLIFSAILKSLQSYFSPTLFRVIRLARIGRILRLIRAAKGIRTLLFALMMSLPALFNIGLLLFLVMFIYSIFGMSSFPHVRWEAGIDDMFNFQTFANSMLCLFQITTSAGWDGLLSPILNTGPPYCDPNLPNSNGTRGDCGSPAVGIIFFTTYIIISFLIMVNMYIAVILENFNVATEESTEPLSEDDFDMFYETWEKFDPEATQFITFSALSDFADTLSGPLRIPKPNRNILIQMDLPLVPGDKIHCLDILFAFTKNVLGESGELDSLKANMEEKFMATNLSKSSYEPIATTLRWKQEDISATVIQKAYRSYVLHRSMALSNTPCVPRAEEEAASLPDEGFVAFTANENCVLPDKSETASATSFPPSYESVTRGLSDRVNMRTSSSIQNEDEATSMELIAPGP

## CC(C)C[C@H](NC(=O)[C@H](Cc1ccccc1)NC(=O)OCc1ccccc1)C(=O)N1CCC[C@H]1C(=O)N[C@@H](CCCCNC(=O)OC(C)(C)C)C(N)=O [ZL0177] (Cbz-FLPK(Boc)-NH2)
  IC50: ~19.5 µM
